Patent US6489307B1, “Antisense compositions targeted to β1-adrenoceptor-specific mRNA and methods of use” (University of Florida, priority 1998, dated 2002)
“Also recorded” adds a separate entry of the source. Read-outs that look alike come from different tables or passages of the source.

Legend:
β1-AR [1] = experiment: β-adrenergic receptor binding assay on renal cortex membranes; type: in vivo, rat (SHR); conditions: for decrease in Bmax of β1-ARs in renal cortex: charge ratio 2
Description: Four days after intravenous injection of saline (n=6) or 0.5 mg/kg inverted ODN (n=6) or 4, 10, 18 and 40 days after injection of 0.5 mg/kg β1-AS-ODN (n=24), animals were euthanized, and membranes were prepared from the renal cortex of the left kidneys as previously described (Baker and Pitha, 1982). For saturation studies, 100 μg membrane protein was incubated in triplicate with 6 concentrations of [^125](−)iodocyanopindolol (ICYP, NEN Life Science, 6.25 to 100 pmol/L) in a total volume of 250 μL containing 50 mmol/L Tris-HCl (pH 7.4) and 5 mmol/L MgCl2 at 36° C. for 60 min. The nonspecific and β2-adrenergic receptor binding levels were determined in the presence of 1 μmol/L (±)-alprenolol and […] CGP20712A (RBI), respectively. Then the reaction mixture was passed through a Whatman GF/B glass fiber filter with a Brandel harvester, and the bound radioactivity was counted for 1 min.

isolated rat heart = experiment: Isolated perfused heart model, myocardial ischemia-reperfusion; type: in vivo, Sprague-Dawley rats; conditions: for ischemia-reperfusion-induced myocardial dysfunction (LVSP, dLVP, LVEDP, CPP): ODN 200 μg/rat i.v. with liposomes 4 days before, 30 min ischemia, 30 min reperfusion; for ischemia-reperfusion induced ventricular abnormality (dLVP, CPP, LVEDP): ODN 1 mg/kg i.v. 4 days before, atenolol 2 mg/kg 6 hr before
Description: Male Sprague-Dawley rats weighing 200-250 g were injected intravenously with either AS-ODNs (n=7) or IN-ODNs (n=7) at a dose of 200 μg/rat 4 days before excising the hearts. DOTAP/DOPE liposomes (700 μg/rat) were given along with ODNs.
The hearts were excised rapidly and placed in ice-cold Kreb-Henseleit buffer (mmol/L: NaCl 118, KCl 4.7, KH2PO4 1.2, MgSO4 1.2, CaCl2 1.25, NaHCO3 25, and glucose 11, pH 7.4). Within one min, the hearts were transferred to an isolated perfusion apparatus and perfused via the aorta with oxygen-saturated (95% O2+5% CO2) Kreb-Henseleit buffer kept at 37° C. with the use of a MasterFlex pump (model 7015-21, Cole-Palmer Instrument Co.) according to the modified Langendroff procedure (Yang et al., 1998; Neely and Rovetto, 1975). The heart was placed in a semi-closed circulating water-warmed (37° C.) air chamber, paced atrially with a Medtronic 5320 pacemaker at a rate of 300 bpm, and perfused at a constant flow (5.5-6.0 ml/per min). Coronary perfusion pressure (CPP) was measured via a catheter placed just proximal to the aorta and connected to a Gould Statham P23ID pressure transducer. A latex balloon filled with water and connected to a Gould Statham P23ID pressure transducer was inserted in the left ventricle through the left atrium to measure left ventricular end-diastolic pressure (LVEDP), left ventricular systolic pressure (LVSP), and developed left ventricular pressure (dLVP) (dLVP=LVSP−LVEDP). LVEDP during equilibration was set at 5 to 7 mmHg. All measurements were continuously recorded on a 4-channel record (Astro-Med).
Six hearts from saline-treated rats were continuously perfused with Kreb-Henseleit buffer for 80 min and served as sham control. Hearts from other rats, after 20 min of equilibration, were subjected to 30 min of ischemia followed by 30 min of reperfusion. After completion of the study, hearts were frozen in liquid-nitrogen for β1-AR analysis by binding assay, β1-AR protein analyses by Western blot, β1-AR mRNA analysis by reverse transcription-polymerase chain reaction (RT-PCR™), and measurement of MDA.
The protective effects of β1-AS-ODNs were tested in a rat model of myocardial ischemia-reperfusion. Five groups of SD rats were studied. Sham controls (n=6) were injected with saline and perfused continuously for 80 min without ischemia/reperfusion (I/R). In other groups, hearts were perfused for 20 min and subjected to global ischemia (30 min) followed by reperfusion (30 min). […] AS-ODN+I/R (n=7) or INV-ODN+I/R (n=7) were injected iv. with 1 mg/kg β1-AS-ODN or INV-ODN 4 days before the I/R study was performed.

MDA (lipid peroxidation) = experiment: MDA levels in myocardium after ischemia-reperfusion; type: in vivo, Sprague-Dawley rats; conditions: pretreatment before ischemia-reperfusion; vs saline
Description: Malondialdehyde (MDA) levels in myocardium were measured in duplicate by a modification of the method of Ohkawa et al., (1979). Briefly, the ventricular tissues were homogenized. The assay mixture consisted of 0.1 ml of the tissue homogenate, 0.4 ml of 0.9% NaCl, 0.5 ml of 3% sodium dodecylsulfate, 3 ml of TBA (thiobarbituric acid reagent, containing equal parts of 0.8% aqueous thiobarbituric acid and acetic acid) and was heated for 75 min at 95° C. Thereafter, 1 ml cold 0.9% NaCl was added to the mixture, which was cooled and extracted with 5 ml n-butanol. After centrifugation at 3,000 rpm for 15 min, the butanol phase was assayed spectrophotometrically at 532 nm. Tetramethoxypropane (in amounts of 0, 0.1, 0.2, 0.4, 0.8, 1.0 nmole) served as external standard. MDA levels in myocardium were expressed in μmol/g tissue.

β1-AR [2] = experiment: β-AR density in myocardium after ischemia-reperfusion (binding assay); type: in vivo, Sprague-Dawley rats
Description: Membrane protein was prepared from left ventricles as previously described (Baker and Pitha, 1982). For saturation studies, 100 μg membrane protein was incubated in triplicate with ^125I-(−)iodocyanopindolol (I-CYP, NEN Life Science, 6.25-100 pM) in a total volume of 250 μl containing 50 mM Tris-HCl (pH 7.4), 5 mM MgCl2 at 36° C. for 60 min. The nonspecific and β2-adrenoceptor binding were determined in the presence of 1 μM (±)-alprenolol and […] (RBI), respectively. Then the reaction mixture was passed through Whatman GF/B glass filter using Brandel harvester and the radioactivity was counted for one min.

β1-AR protein = experiment: Western blot of β1-AR protein in myocardium; type: in vivo, Sprague-Dawley rats; conditions: Western analysis
Description: Myocardial tissues were homogenized and lysed in boiling lysis buffer (1% SDS, 0.1% Triton X-100®, and 10 mmol/L Tris-HCl, pH 7.4) and centrifuged at 10,000 RPM for 30 minutes at 4° C. The lysate protein from myocardial tissues (20 μg/lane) was separated by 8% SDS-PAGE using a Bio-Rad Mini-Protean cell, transferred to nitrocellulose membrane (Amersham). After incubation in blocking solution (4% non-fat milk, Sigma), membranes were incubated with 1:1000 dilation primary antibody (polycolonal antibody to β1-AR, Santa Cruz Biotechnology) for overnight at 4° C. Membranes were washed and incubated with 1:2000 dilution second antibody (Amersham) for one hr. The membranes were detected with the ECL system, as described previously (Yang et al, 1998; Li et al., 1999).

PRA = test system: PRA
Description: PRA was determined with an angiotensin I (^125I) radioimmunoassay kit (DuPont). Plasma Ang II levels were measured by radioimmunoassay as previously described (Phillips and Kimura, 1988).

| Substance | effect on either β-AR subtype in renal cortex (β1-AR [1]; 0.5 mg/kg i.v., 4 days) | ischemia-reperfusion-induced myocardial dysfunction (LVSP, dLVP, LVEDP, CPP) (isolated rat heart) | ischemia-reperfusion induced ventricular abnormality (dLVP, CPP, LVEDP) (isolated rat heart) | increase in MDA levels in the myocardium (MDA (lipid peroxidation)) | effect on β1-AR density in ischemic-reperfused myocardium (β1-AR [2]; rat, in vivo) | ischemia-reperfusion-mediated increase in β1-AR protein expression (β1-AR protein) | affinity of either subtype in renal cortex (β1-AR [1]; 0.5 mg/kg i.v.) | decrease in Bmax of β1-ARs in renal cortex (β1-AR [1]; 0.5 mg/kg i.v., day 4) | decrease in Bmax of β1-ARs in renal cortex (β1-AR [1]; 0.5 mg/kg i.v., day 10) | decrease in Bmax of β1-ARs in renal cortex (β1-AR [1]; 0.5 mg/kg i.v., day 18) | Bmax of β1-ARs in renal cortex (β1-AR [1]; 0.5 mg/kg i.v., day 40) | duration of reduction of β1-AR levels in renal cortex (β1-AR [1]; summary statement) | reduction of β1-AR levels in renal cortex (β1-AR [1]; summary statement) | PRA (PRA; day 4) | PRA (PRA; day 10 and day 18) | time after injection until decrease in PRA and Ang II occurred (PRA; single injection) | preserving dLVP after ischemia-reperfusion, comparison with atenolol (isolated rat heart; 200 μg/rat 4 days before) | overall protective effects, comparison with atenolol (isolated rat heart; 1 mg/kg i.v. 4 days before) | restoration of dLVP, comparison with atenolol (isolated rat heart; 1 mg/kg i.v. 4 days before) | β1-AR density (Bmax) in ischemic-reperfused myocardium (β1-AR [2]; vs 28.7±5.4 in saline-treated rat hearts) |
| --- | --- | --- | --- | --- | --- | --- | --- | --- | --- | --- | --- | --- | --- | --- | --- | --- | --- | --- | --- | --- |
| 5′-AGCCGTACCCGCGCC-3′ (phosphorothioate backbone, further chemistry not given here) [Inverted ODN, 15-mer inverted ODN control, reference compound] | no effect | no effect | no effect | did not affect | no effect | no effect |  |  |  |  |  |  |  |  |  |  |  |  |  |  |
| 5′-CCGCGCCCATGCCGA-3′ (phosphorothioate backbone, further chemistry not given here) [β1-AS-ODN, 15-mer antisense ODN targeted to the AUG start codon of rat β1-AR mRNA] |  | markedly attenuated | beneficial effects; also recorded: markedly attenuated | attenuated the increase |  | abolished | not affected | 35% | 29% | 23% | completely restored | 18 days | ≈ 30% | not on day 4 | significantly decreased | ≈ 10 days | more effective than atenolol | equivalent to or even better than atenolol | to a greater extent than atenolol | 15.9 ± 1.3 fmol/mg |
